Target: CREBBP (Homo sapiens (Human), UniProt Q92793)
Test: AlphaScreen in-vitro binding assay for CREBBP
Settings: 324 nM His-CREBBP (1081-1197), acetyl-histone H4 (AcK 5, 8, 12) peptide
Method in brief: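 IC50 values were derived by non-linear regression of percent inhibition across 8 compound concentrations. Protein was His-tagged CREBBP bromodomain (1081-1197), peptide acetyl-histone H4 (AcK 5, 8, 12), in HEPES pH 7.5 buffer. Read-out was AlphaScreen with Ni-chelate acceptor and streptavidin donor beads, 35 min at 30° C then 60 min at RT.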

Sequence of CREBBP (Q92793 1081-1197): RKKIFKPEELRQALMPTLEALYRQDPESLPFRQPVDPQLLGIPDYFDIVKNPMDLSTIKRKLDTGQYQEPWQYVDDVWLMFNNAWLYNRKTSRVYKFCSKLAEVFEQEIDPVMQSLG

Structure (SMILES)	IC50
Cc1cn(C)c2c1C(=O)N(c1cc(C)c3nnc(C)n3c1)C2c1ccc(Cl)cc1 (stereo not drawn) [Example 33, 6-(4-chlorophenyl)-5-(3,8-dimethyl-[1,2,4]triazolo[4,3-a]pyridin-6-yl)-1,3-di methyl-5,6-dihydropyrrolo[3,4-b]pyrrol-4(1H)-one]	10.1 µM
Cc1cn(C)c2c1C(=O)N(c1cc(C)c(=O)n(C)c1)C2c1ccc(Cl)cc1 (stereo not drawn) [Example 34, 6-(4-chlorophenyl)-5-(1,5-dimethyl-6-oxo-1,6-dihydropyridin-3-yl)-1,3-dimethyl-5,6-dihydropyrrolo[3,4-b]pyrrol-4(1H)-one]	1.9 µM
COc1ncc(-c2cc3c(n2C)C(c2ccc(Cl)cc2)N(c2cc(Cl)c(=O)n(C)c2)C3=O)c(OC)n1 (stereo not drawn) [Example 38, 5-(5-chloro-1-methyl-6-oxo-1,6-dihydropyridin-3-yl)-6-(4-chlorophenyl)-2-(2,4-dimethoxypyrimidin-5-yl)-1-methyl-5,6-dihydropyrrolo[3,4-b]pyrrol-4(1H)-one]	0.205 µM
Cn1c(-c2ccc(=O)n(C)c2)cc2c1C(c1ccc(Cl)cc1)N(c1cc(Cl)c(=O)n(C)c1)C2=O (stereo not drawn) [Example 42, 5-(5-chloro-1-methyl-6-oxo-1,6-dihydropyridin-3-yl)-6-(4-chlorophenyl)-1-methyl-2-(1-methyl-6-oxo-1,6-dihydropyridin-3-yl)-5,6-dihydropyrrolo[3,4-b]pyrrol-4(1H)-one]	0.31 µM
Cc1cc(N2C(=O)c3cc(-c4ccn(C)c(=O)c4)n(C)c3C2c2ccc(Cl)cc2)cn(C)c1=O (stereo not drawn) [Example 45, 6-(4-chlorophenyl)-5-(1,5-dimethyl-6-oxo-1,6-dihydropyridin-3-yl)-1-methyl-2-(1-methyl-2-oxo-1,2-dihydropyridin-4-yl)-5,6-dihydropyrrolo[3,4-b]pyrrol-4(1H)-one]	0.37 µM
COc1ncc(-c2cc3c(n2C)[C@@H](c2ccc(Cl)cc2)N(c2cc(C)c(=O)n(C)c2)C3=O)c(OC)n1 [Example 54, (R)-6-(4-chlorophenyl)-2-(2,4-dimethoxypyrimidin-5-yl)-5-(1,5-dimethyl-6-oxo-1,6-dihydropyridin-3-yl)-1-methyl-5,6-dihydropyrrolo[3,4-b]pyrrol-4(1H)-one]	0.091 µM
COc1ncc(-c2cc3c(n2C)[C@@H](c2ccc(Cl)cc2)N(c2cc(C)c(=O)n(C)c2)C3=O)cn1 [Example 56, (R)-6-(4-chlorophenyl)-5-(1,5-dimethyl-6-oxo-1,6-dihydropyridin-3-yl)-2-(2-methoxypyrimidin-5-yl)-1-methyl-5,6-dihydropyrrolo[3,4-b]pyrrol-4(1H)-one]	0.13 µM
Cc1cc2c(n1C)[C@@H](c1ccc(Cl)cc1)N(c1cc(Cl)c(=O)n(C)c1)C2=O [Example 75, (R)-5-(5-chloro-1-methyl-6-oxo-1,6-dihydropyridin-3-yl)-6-(4-chlorophenyl)-1,2-dimethyl-5,6-dihydropyrrolo[3,4-b]pyrrol-4(1H)-one]	0.79 µM
Cn1ccc2c1[C@@H](c1ccc(Cl)cc1)N(c1cc(Cl)c(=O)n(C)c1)C2=O [Example 77, (R)-5-(5-chloro-1-methyl-6-oxo-1,6-dihydropyridin-3-yl)-6-(4-chlorophenyl)-1-methyl-5,6-dihydropyrrolo[3,4-b]pyrrol-4(1H)-one]	1.3 µM

Reference: patent US9550796B2, “Pyrrolopyrrolone derivatives and their use as BET inhibitors” (NOVARTIS AG, priority 2013, dated 2017)
